# Experimental data: paper PMC11767661 (Molecules, 2025)
# “Also recorded” adds a separate entry of the source.
# Key:
# [1] = complex of copper(II) with the buffer; cited from earlier work
# Source text: Shifting in fragmentation sites could be related to structural alterations induced by the N-protection. It is commonly accepted that the N-capping ...
# [2] = 50 mM HEPES buffer at pH 7.4 with 25 µM zinc(II) chloride; conditions: 4 °C, up to 14 days
# [3] = 50 mM Hepes buffer at pH 7.4, peptide alone; conditions: 4 °C, up to 14 days
# [4] = 50 mM HEPES buffer at pH 7.4 with 25 µM copper(II) nitrate; conditions: 4 °C, up to 14 days
# [5] = Peptide hydrolysis in Hepes buffer alone or with Cu2+/Zn2+, followed by HPLC-ESI/MS; format: physicochemical; conditions: 50 mM HEPES pH 7.4, 4 °C, LC-MS relative % area
# Method: Herein, we analyzed the hydrolytic process of Aβ peptides in 50 mM Hepes buffer at 7.4 physiological pH over two weeks at two distinct temperatures, 4 °C and 37 °C, using mass spectrometry coupled with high-performance liquid chromatography (HPLC-MS) for precise analysis. Additionally, we explored the impact of copper(II) or zinc(II) ions, each added in a 1:1 molar ratio to the peptides, on the resulting hydrolytic fragmentation patterns. It is worth noting that metal binding only occurs at the N-terminal region of Aβ peptides, specifically interacting with histidine residues. The commonly accepted peptide sequence 1–16 (^1[…]^16, Aβ16) is widely used as a model for this interaction due to its inclusion of all three histidines (His6, His13, and His14) known for their key roles in coordinating metal ions. Therefore, the initial studies were performed on this short peptide.
# General. All chemicals were of reagent grade and purchased from Sigma-Aldrich. Preparative HPLC was carried out with a Shimadzu LC-20AD Prominence instrument equipped with a diode array detector. Mass spectra and LCMS/MS data were performed with an LCQ ADV MAX ion-trap mass spectrometer equipped with an ESI ion source. The instrument was run in an automated LC-MS/MS mode and using a surveyor HPLC system (Thermo Finnigan, San Jose, CA, USA) equipped with a Phenomenex Jupiter 4u Proteo column (4 μm, 150 × 2.0 mm). For the analysis of peptide fragments, Bioworks 3.1 and Xcalibur 2.0.7 SP1 software were used (Thermo Finnigan, San Jose, CA, USA).
# Peptide hydrolysis in the presence of metal ions. Solutions of Aβ16 and Aβ28 (500 µM) alone or with the addition of Cu(NO3)2 (1 eqv., 500 µM) or ZnCl2 (1 eqv., 500 µM) were prepared in 50 mM Hepes buffer at pH 7.4. The solutions were then incubated at 4 °C or 37 °C (only for Aβ16) in atmospheric air and every 7 days aliquots were taken, diluted to the 25 µM final concentration with Hepes buffer, and analyzed by HPLC-ESI/MS. The solution of R1τ, Ac-R1τ, αSyn15, and Ac-αSyn15 (25 µM) fragments were incubated in 50 mM Hepes buffer at 4 °C for 14 days; at the same time, solutions also containing copper(II) or zinc(II) in a 1:1 molar ratio respect to peptide were prepared. The elution was performed by using 0.1% HCOOH in distilled water (solvent A) and 0.1% HCOOH in acetonitrile (solvent B), with a flow rate of 0.2 mL/min. Elution started with 98% solvent A for 5 min, followed by a linear gradient from 98 to 55% A in 55 min. […] For the analysis of peptide fragments, Bioworks 3.1 and Xcalibur 2.0.7 SP1 software were used (Thermo Finnigan, San Jose, CA, USA).
# [6] = Aβ28 500 µM + 500 µM copper(II) nitrate, 14 days
# [7] = Aβ28 500 µM + 500 µM copper(II) nitrate, 21 days
# [8] = Aβ28 500 µM + 500 µM zinc(II) chloride, 14 days
# [9] = Aβ28 500 µM + 500 µM zinc(II) chloride, 21 days
Compound,cleaved bond [2],cleaved bond [3],cleaved bond [4],"Remaining amount of Aβ28 and species detected by LC-MS (Table S2) [5, 6]","Remaining amount of Aβ28 and species detected by LC-MS (Table S2) [5, 7]","Remaining amount of Aβ28 and species detected by LC-MS (Table S2) [5, 8]","Remaining amount of Aβ28 and species detected by LC-MS (Table S2) [5, 9]","Remaining amount of Aβ28 and species detected by LC-MS (Table S2) ([5]; Aβ28 500 µM alone, 14 days)",also measured
O=S(=O)(O)CCN1CCN(CCO)CC1 [Hepes],,,,,,,,,Copper(II) complex formation constant (log K) [1]: 3
Ac-^1MDVFMKGLSKAKEGV^15-NH2,"L8-S9, 14 days","K6-G7, 14 days; also recorded: K10-A11, 14 days; also recorded: L8-S9, 14 days","L8-S9, 14 days",,,,,,
Ac-^256VKSKIGSTENLKHQPGGG^273-NH2,"G261-S262, 14 days; also recorded: N265-L266, 14 days; also recorded: E264-N265, 14 days; also recorded: K267-H268, 14 days","K259-I260, 14 days; also recorded: G261-S262, 14 days; also recorded: I260-G261, 14 days; also recorded: E264-N265, 14 days; also recorded: S258-K259, 14 days; also recorded: Q269-P270, 14 days; also recorded: K267-H268, 14 days; also recorded: L266-K267, 14 days","G261-S262, 14 days; also recorded: N265-L266, 14 days; also recorded: E264-N265, 14 days",,,,,,
DAEFRHDSGYEVHHQKLV.F [hydrolytic fragment 1-18 of Aβ28],,,,4%,7%,7%,10%,5%,
DAEFRHDSGYEVHHQKLVF.F [hydrolytic fragment 1-19 of Aβ28],,,,1%,1%,7%,6%,,
DAEFRHDSGYEVHHQKLVFFAE.D [hydrolytic fragment 1-22 of Aβ28],,,,3%,5%,9%,7%,,
E.FRHDSGYEVHHQ.K [hydrolytic fragment 4-15 of Aβ28],,,,,,,,2%,
H-MDVFMKGLSKAKEGV-NH2,,,,,,,,,amount (%) of intact peptide after hydrolysis: > 90%
K.LVFFAEDVGSNK [hydrolytic fragment 17-28 of Aβ28],,,,1%,1%,5%,4%,22%,
Q.KLVFFAEDVGSNK [hydrolytic fragment 16-28 of Aβ28],,,,,,10%,13%,16%,
^1MDVFMKGLSKAKEGV^15-NH2,"K6-G7, 14 days; also recorded: F4-M5, 14 days; also recorded: L8-S9, 14 days","K6-G7, 14 days; also recorded: F4-M5, 14 days; also recorded: L8-S9, 14 days","K12-E13, 14 days; also recorded: K6-G7, 14 days; also recorded: F4-M5, 14 days; also recorded: L8-S9, 14 days",,,,,,
^256VKSKIGSTENLKHQPGGG^273-NH2,"K259-I260, 14 days; also recorded: I260-G261, 14 days; also recorded: E264-N265, 14 days; also recorded: K267-H268, 14 days","G261-S262, 14 days; also recorded: N265-L266, 14 days","N265-L266, 14 days; also recorded: S258-K259, 14 days; also recorded: Q269-P270, 14 days",,,,,,
